Earlier results in patent US20160120848A1, “SPECIFIC CANCER TREATMENT REGIMES WITH GANETESPIB” (SYNTA PHARMACEUTICALS CORP., priority 2013, published 2016).

Legend:
[1] = tested on: leukemia cells that express either wild type FLT3 or FLT3-ITD mutations; conditions: cells expressing wild type FLT3 or FLT3-ITD mutations; cited from earlier work
Kasumi-1 cells = conditions: Kasumi-1, acute myeloid leukemia cell line with c-Kit mutation; cited from earlier work
FLT3 with Hsp90 = conditions: cited from earlier work

## C=CCNC1=C2C[C@@H](C)C[C@H](OC)[C@H](O)[C@@H](C)/C=C(\C)[C@H](OC(N)=O)[C@@H](OC)/C=C\C=C(/C)C(=O)NC(=CC1=O)C2=O [17AAG]
[1]
  growth of leukemia cells: inhibited
Kasumi-1 cells
  apoptosis: induce apoptosis
FLT3 with Hsp90
  effect on association of FLT3 with Hsp90: disrupt the association of FLT3 with Hsp90
